Laboratory results as given in patent EP0243717A1 (priority 1986, dated 1987).
≈ marks a conversion by molar mass, not a printed value. Where “and” joins values, the source holds several entries; their conditions need not be identical. Equal entries are not always repeated. Where two headings read alike, the source gives them in different places.

Tests used:
Treponema hyodysenteriae [1] = assay type: in vivo, pigs
Treponema hyodysenteriae [2] = assay type: in vivo, pigs; remark: listed apart in the source
T. hyo = experiment: Example 7: induced swine dysentery trial, drug in feed; assay type: in vivo, pigs; details: for No. Pig Days with General Appearance Score of: 1 / No. Pig Days with Hydration Score of: 1: 1 = Normal; for No. Pig Days with General Appearance Score of: 2: 2 = Depressed; for No. Pig Days with Hydration Score of: 2: 2 = mild; for No. Pig Days with General Appearance Score of: 3: 3 = Moribund; for No. Pig Days with Hydration Score of: 3: 3 = moderate; for No. Pig Days with General Appearance Score of: 4: 4 = Dead; for No. Pig Days with Hydration Score of: 4: 4 = severe
Procedure: The test is conducted using 40 crossbred pigs approximately 6 weeks of age, weighing 12.8 kg at receipt. Pigs are assigned to one of the treatments outlined in the Table below, stratified by body weight and sex, and randomly assigned to pens within a randomized block design. Sexes intermixed within pens and proportioned among treatment groups. Treatments groups are randomly assigned to pens within experimental blocks to alleviate location variables (see Table 9). Each treatment group consists of two replicate pens with five pigs per pen.
All pigs are adjusted to the test facility for four days prior to their challenge with 100 ml of T. hvodvsenteriae (T. hvo) broth culture. Respective treatment diets are provided 1 hr postchallenge and continued ad libitum for three weeks followed by a two week nonmedicated period. Clinical signs are noted and recorded for each pig each day postchallenge.
Pigs are challenged on day 5 and then provided respective treatment diets immediately postchallenge for a 21-day period followed by a 14-day nonmedication period.
Pigs are challenged on day 5 and then provided respective treatment diets immediately postchallenge for a 21-day period followed by a 14-day nonmedicated period.

Xanthomonas oryzae KB 88 = experiment: microbe, parasite or virus in culture; assay type: cell-based
[3] = tested on: piricularia oryzae KF 180; experiment: microbe, parasite or virus in culture; assay type: cell-based
[4] = tested on: Bcteroides fragilis KB 169 (ATCC 23745); assay type: cell-based; details: Medium B
Source text: (§1) For reference, the minimum growth inhibition concentrations (MIC) to various bacteria of above five drugs and Lankacidin C are shown in Table 3.

[5] = tested on: Clostridium perfringens KB 129 (ATCC 3624); experiment: microbe, parasite or virus in culture; assay type: cell-based
[6] = tested on: Peptococcus variabilis KB 235 (ATCC 14955); assay type: cell-based; details: Medium B
Source text: as §1

[7] = […], 0 normal, 1 diarrhea, 2 feces cruentae
[8] = Group III, 5 additional healthy pigs penned with the treated pigs
[9] = Group III, second line of 5 pigs (additional healthy pigs)
[10] = Treatment A, 20 g/ton hygromycin A, Total
[11] = Treatment A, 20 g/ton hygromycin A, per pen (1, 4)
[12] = Treatment B, 10 g/ton hygromycin A, Total
[13] = Treatment B, 10 g/ton hygromycin A, per pen (5, 8)
[14] = Treatment C, 50 g/ton hygromycin A, Total
[15] = Treatment C, 50 g/ton hygromycin A, per pen (2, 7)
[16] = Treatment C, 50 g/ton Carbadox, Total
[17] = Treatment C, 50 g/ton Carbadox, per pen (2, 7)
[18] = Clostridium perfringens, ATCC3624

CC(=O)[C@H]1O[C@@H](Oc2ccc(/C=C(\C)C(=O)N[C@@H]3[C@H](O)[C@@H](O)[C@H]4OCO[C@H]4[C@@H]3O)cc2O)[C@@H](O)[C@@H]1O [Hygromycin A, hygromycin A]
Pathogen Detection Rate (%) During medication days 31 to 120 (Treponema hyodysenteriae [1]; Group III, hygromycin A 0.5mg/liter drinking water, rectal swabs): 0/12 | Mortality (Treponema hyodysenteriae [1]; Group III: infected, hygromycin A 0.5mg/liter drinking water): 0 | Pathogen Detection Rate (%) Withdrawal days 31 to 120 (Treponema hyodysenteriae [1]; Group III, after end of medication, rectal swabs): 0/12 | Pathogen Detection Rate (%) Post infecting days 1 to 3 Before medication (Treponema hyodysenteriae [1]; Group III, rectal swabs): 10/12 | Pathogen Detection Rate (%) Prein-fecting (Treponema hyodysenteriae [1]; Group III, rectal swabs): 0% | Average diarrhea index During medication (Treponema hyodysenteriae [1]; [7]): 0.22 | Average diarrhea index Pre-medication (Treponema hyodysenteriae [1]; [7]): 0 | Gross pathological examination of the colon (Treponema hyodysenteriae [1]; […], necropsy after the experiment): normal | Change in morbidity (%) Third day (Treponema hyodysenteriae [1]; pig, in vivo): 0% | Change in morbidity (%) Thirtieth day (Treponema hyodysenteriae [1]; pig, in vivo): 0% | Average diarrhea index During observation (Treponema hyodysenteriae [2]; [8]): 0 | Change in morbidity ( %) Commencement of observation (Treponema hyodysenteriae [2]; [8]): 0% | Change in morbidity ( %) During observation (Treponema hyodysenteriae [2]; [8]): 0% | Mortality (%) (Treponema hyodysenteriae [2]; [8]): 0% | Mortality (%) (Treponema hyodysenteriae [2]; Group III, 5 infected treated pigs): 0% | Pathogen Detection Rate (%) Commencement of observation (Treponema hyodysenteriae [2]; [9]): 0% | Pathogen Detection Rate (%) During observation (Treponema hyodysenteriae [2]; [9]): 0% | attack of the disease in infected pigs or healthy pigs (Treponema hyodysenteriae [2]; Group III, during the observation period): no attack of the disease is observed | swine dysentery symptoms of infected pigs (Treponema hyodysenteriae [2]; Group III, during the therapeutic period and at the starting time of observation): no swine dysentery symptoms | Average diarrhea index pre-medication (Treponema hyodysenteriae [2]; [7]): 0 | Average diarrhea index During medication (Treponema hyodysenteriae [2]; pig, in vivo): 0 | Average diarrhea index During observation (Treponema hyodysenteriae [2]; pig, in vivo): 0 | Change in morbidity ( %) Commencement of observation (Treponema hyodysenteriae [2]; pig, in vivo): 0% | Change in morbidity ( %) During medication (Treponema hyodysenteriae [2]; pig, in vivo): 0/5 | Change in morbidity ( %) During observation (Treponema hyodysenteriae [2]; pig, in vivo): 0% | Pathogen Detection Rate (%) Commencement of observation (Treponema hyodysenteriae [2]; pig, in vivo): 0% | Pathogen Detection Rate (%) During medication (Treponema hyodysenteriae [2]; pig, in vivo): 0% | Pathogen Detection Rate (%) During observation (Treponema hyodysenteriae [2]; pig, in vivo): 0% | Pathogen Detection Rate (%) pre-infection (Treponema hyodysenteriae [2]; pig, in vivo): 0% | No. Pig Days with General Appearance Score of: 1 (T. hyo; [10]): 349 pig days | No. Pig Days with General Appearance Score of: 2 (T. hyo; [10]): 1 pig days | No. Pig Days with Hydration Score of: 2 (T. hyo; [10]): 0 pig days | No. Pig Days with General Appearance Score of: 3 (T. hyo; [10]): 0 pig days | No. Pig Days with Hydration Score of: 3 (T. hyo; [10]): 0 pig days | No. Pig Days with General Appearance Score of: 4 (T. hyo; [10]): 0 pig days | No. Pig Days with Hydration Score of: 4 (T. hyo; [10]): 0 pig days | No. Pig Days with General Appearance Score of: 1 (T. hyo; [11]): 174 pig days and 175 pig days | No. Pig Days with Hydration Score of: 2 (T. hyo; [11]): 0 pig days | No. Pig Days with General Appearance Score of: 3 (T. hyo; [11]): 0 pig days | No. Pig Days with Hydration Score of: 3 (T. hyo; [11]): 0 pig days | No. Pig Days with General Appearance Score of: 4 (T. hyo; [11]): 0 pig days | No. Pig Days with Hydration Score of: 4 (T. hyo; [11]): 0 pig days | No. Pig Days with Hydration Score of: 1 (T. hyo; Treatment A, 20 g/ton, Total): 350 pig days | No. Pig Days with Hydration Score of: 1 (T. hyo; Treatment A, 20 g/ton, per pen (1, 4)): 175 pig days | No. Pig Days with General Appearance Score of: 1 (T. hyo; [12]): 349 pig days | No. Pig Days with General Appearance Score of: 2 (T. hyo; [12]): 1 pig days | No. Pig Days with Hydration Score of: 2 (T. hyo; [12]): 4 pig days | No. Pig Days with General Appearance Score of: 3 (T. hyo; [12]): 0 pig days | No. Pig Days with Hydration Score of: 3 (T. hyo; [12]): 0 pig days | No. Pig Days with General Appearance Score of: 4 (T. hyo; [12]): 0 pig days | No. Pig Days with Hydration Score of: 4 (T. hyo; [12]): 0 pig days | No. Pig Days with General Appearance Score of: 1 (T. hyo; [13]): 175 pig days and 174 pig days | No. Pig Days with Hydration Score of: 2 (T. hyo; [13]): 2 pig days | No. Pig Days with General Appearance Score of: 3 (T. hyo; [13]): 0 pig days | No. Pig Days with Hydration Score of: 3 (T. hyo; [13]): 0 pig days | No. Pig Days with General Appearance Score of: 4 (T. hyo; [13]): 0 pig days | No. Pig Days with Hydration Score of: 4 (T. hyo; [13]): 0 pig days | No. Pig Days with Hydration Score of: 1 (T. hyo; Treatment B, 10 g/ton, Total): 346 pig days | No. Pig Days with Hydration Score of: 1 (T. hyo; Treatment B, 10 g/ton, per pen (5, 8)): 173 pig days | No. Pig Days with Hydration Score of: 2 (T. hyo; [14]): 3 pig days | No. Pig Days with Hydration Score of: 3 (T. hyo; [14]): 0 pig days | No. Pig Days with Hydration Score of: 4 (T. hyo; [14]): 0 pig days | No. Pig Days with Hydration Score of: 2 (T. hyo; [15]): 2 pig days and 1 pig days | No. Pig Days with Hydration Score of: 3 (T. hyo; [15]): 0 pig days | No. Pig Days with Hydration Score of: 4 (T. hyo; [15]): 0 pig days | No. Pig Days with Hydration Score of: 1 (T. hyo; Treatment C, printed 50 g/ton, Total): 347 pig days | No. Pig Days with Hydration Score of: 1 (T. hyo; Treatment C, printed 50 g/ton, per pen (2, 7), row): 173 pig days and 174 pig days | MIC (Xanthomonas oryzae KB 88; Medium E): 50 µg/mL (≈ 97.8 µM) | MIC [3]: >100 µg/mL | MIC [4]: 50 µg/mL (≈ 97.8 µM) | MIC ([5]; Medium B): 6.25 µg/mL (≈ 12.2 µM)

CC(=O)C(=O)N[C@@H]1/C=C(C)/C=C/[C@@H](O)C/C=C(C)/C=C/[C@@H](O)C[C@H]2OC(=O)[C@]1(C)C(=O)[C@@H]2C [Lankacidin C]
MIC (Xanthomonas oryzae KB 88; Medium E): < 3.12 µg/mL | MIC [3]: >100 µg/mL | MIC [6]: 0.4 µg/mL (≈ 0.87 µM) | MIC [4]: 0.78 µg/mL (≈ 1.7 µM) | MIC ([5]; Medium B): 3.12 µg/mL (≈ 6.79 µM)

COC(=O)N/N=C/c1c[n+]([O-])c2ccccc2[n+]1[O-] [Carbadox, carbadox, reference compound]
No. Pig Days with General Appearance Score of: 1 (T. hyo; [16]): 349 pig days | No. Pig Days with General Appearance Score of: 2 (T. hyo; [16]): 1 pig days | No. Pig Days with General Appearance Score of: 3 (T. hyo; [16]): 0 pig days | No. Pig Days with General Appearance Score of: 4 (T. hyo; [16]): 0 pig days | No. Pig Days with General Appearance Score of: 1 (T. hyo; [17]): 174 pig days and 175 pig days | No. Pig Days with General Appearance Score of: 3 (T. hyo; [17]): 0 pig days | No. Pig Days with General Appearance Score of: 4 (T. hyo; [17]): 0 pig days

C=C[C@]1(C)C[C@@H](OC(=O)CSCCN(CC)CC)[C@]2(C)[C@H](C)CC[C@]3(CCC(=O)[C@H]32)[C@@H](C)[C@@H]1O [Dynamutilin, tiamulin]
MIC (Xanthomonas oryzae KB 88; Xanthomonas oryzae, KB88): < 3.12 µg/mL | MIC [3]: > 100 µg/mL | MIC ([6]; read-out: MIC): 0.4 µg/mL (≈ 0.81 µM) | MIC ([4]; read-out: MIC): < 0.2 µg/mL | MIC [5, 18]: 0.78 µg/mL (≈ 1.58 µM)

CCC[C@@H]1C[C@@H](C(=O)N[C@@H]([C@H]2O[C@H](SC)[C@H](O)[C@@H](O)[C@H]2O)[C@@H](C)O)N(C)C1 [Lincomycin]
MIC (Xanthomonas oryzae KB 88; Xanthomonas oryzae, KB88): > 100 µg/mL | MIC [3]: > 100 µg/mL | MIC ([6]; read-out: MIC): 0.78 µg/mL (≈ 1.92 µM) | MIC ([4]; read-out: MIC): 0.4 µg/mL (≈ 0.984 µM) | MIC [5, 18]: 0.4 µg/mL (≈ 0.984 µM)
